Laboratory results from US12595264B2, “Heterocyclic GLP-1 agonists” (Gasherbrum Bio, Inc., priority 2020, dated 2026).

The molecules below were run against T1, GLP-1 Receptor (Homo sapiens, UniProt P43220) (assay: GLP-1R agonist cAMP stimulation assay (HEK293/GLP1R/CRE-LUC cells, HTRF cAMP dynamic 2 kit)). Conditions: HEK293/CRE-Luc cell line (HDB), 30 min incubation, read-out: GLP1R cAMP Stimulation DR: EC50 (nM) [Species: Human, Assay Cell Line: HDB].
T1 construct: host or cells: HEK293/GLP1R/CRE-LUC (HEK293/CRE-Luc stably expressing GLP-1R)
T1 sequence (P43220 24-463): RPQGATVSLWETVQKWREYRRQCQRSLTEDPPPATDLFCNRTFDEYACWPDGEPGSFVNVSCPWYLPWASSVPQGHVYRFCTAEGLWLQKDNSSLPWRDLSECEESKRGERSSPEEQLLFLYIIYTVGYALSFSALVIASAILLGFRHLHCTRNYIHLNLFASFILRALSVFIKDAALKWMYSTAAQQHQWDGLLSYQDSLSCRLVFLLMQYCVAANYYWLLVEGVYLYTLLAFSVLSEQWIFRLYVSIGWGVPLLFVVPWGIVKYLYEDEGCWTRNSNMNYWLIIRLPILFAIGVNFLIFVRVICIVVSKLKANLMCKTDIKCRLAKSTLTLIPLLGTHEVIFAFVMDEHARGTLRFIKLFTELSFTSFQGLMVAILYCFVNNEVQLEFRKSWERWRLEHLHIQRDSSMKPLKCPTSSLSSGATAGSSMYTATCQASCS
Format: cell-based
Protocol: Activation of GLP-1 receptor is known to stimulate cyclic AMP (cAMP) production in cells which indicates primary coupling to the Gαs subunit of the G protein heterotrimeric complex.
To optimize functional activity directed toward Gαs coupling, a HEK293/CRE-Luc cell line developed by HDB stably expressing the GLP-1 Receptor was used. 200×concentration of compound working solutions were prepared (Agilent Technologies Bravo) with ½ log serial dilution in 384-well Echo LDV plate (Labcyte, Cat #LP-0200). 50 nL/well 200×concentration of compound working solutions were moved to 384-well white low volume plate (Greiner, Cat #784075) using Labcyte ECHO550. 1×10^5 cells/mL HEK293/GLP1R/CRE-LUC(HD Biosciences) cell suspensions prepared with assay buffer[DPBS containing 0.5 mM IBMX (Sigma, Cat #15879) and 0.1% BSA (GENVIEW, Cat #FA016-100g)], 10 uL cell suspensions were added to each well of previous generated assay plate which already contains 50n1 compound at 200× concentration using ThermoFisher Multidrop Combi (1000 cells/well). Seal the plate and incubate at 37° C. with 5% CO2 for 30 min.
After incubation the cAMP assay signal was generated using cAMP dynamic 2 Kit (Cisbio). 5 μL cAMP-d2 working solution was added to each well, followed with 5 μL Anti-cAMP antibody-cryptate working solution added to each well using ThermoFisher Multidrop Combi. Incubate at room temperature for 1 hour protected from light. Read the fluorescence at 665 and 615 nm with Reader PerkinElmer EnVision. % Activity=100%×(mean RLU of test sample−mean RLU of vehicle control)/(mean RLU of MAX control−mean RLU of vehicle control))

| Structure (SMILES) | EC50 [nM] |
| --- | --- |
| CCP(=O)(CC)c1ccc(-n2ccn(-c3c(-c4cc(C)c(F)c(C)c4)nn4c3C(C)N(C(=O)c3cc5cc(C6CCOCC6)ccc5n3[C@@]3(c5noc(=O)[nH]5)C[C@@H]3C)CC4)c2=O)cc1NC (mixture of isomers) [Compound 108a, 3-((1S,2S)-1-(2-(3-(3-(4-(diethylphosphoryl)-3-(methylamino)phenyl)-2-oxo-2,3-dihydro-1H-imidazol-1-yl)-2-(4-fluoro-3,5-dimethylphenyl)-4-methyl-4,5,6,7-tetrahydropyrazolo[1,5-a]pyrazine-5-carbonyl)-5-(tetrahydro-2H-pyran-4-yl)-1H-indol-1-yl)-2-methylcyclopropyl)-1,2,4-oxadiazol-5(4H)-one] | 0.1 |
| Cc1cc(-c2nn3c(c2-n2ccn(-c4ccc5c(cnn5C)c4F)c2=O)C(C)N(C(=O)c2cc4cc(C5CCOCC5)ccc4n2[C@@]2(c4noc(=O)[nH]4)C[C@@H]2C)CC3)cc(C)c1F (single isomer, unassigned) [Compound 110a] | 0.13 |
| CCP(=O)(CC)c1ccc(-n2ccn(-c3c(-c4cc(C)c(F)c(C)c4)nn4c3C(C)N(C(=O)c3cc5cc(C6CCOCC6)ccc5n3[C@@]3(c5noc(=O)[nH]5)C[C@@H]3C)CC4)c2=O)cc1NC (single isomer, unassigned) [Compound 111a] | 0.042 |
| CCP(=O)(CC)c1ccc(-n2ccn(-c3c(-c4cc(C)c(F)c(C)c4)nn4c3C(C)N(C(=O)c3cc5cc(C6CCOCC6)ccc5n3[C@@]3(c5noc(=O)[nH]5)C[C@@H]3C)CC4)c2=O)cc1NC (single isomer, unassigned) [Compound 112a] | 42 |
| CCP(=O)(CC)c1ccc(-n2ccn(-c3c(-c4cc(C)c(F)c(C)c4)nn4c3C(C)N(C(=O)c3cc5cc([C@H]6CCOC(C)(C)C6)ccc5n3[C@@]3(c5noc(=O)[nH]5)C[C@@H]3C)CC4)c2=O)cc1NC (single isomer, unassigned) [Compound 113a] | 0.17 |
| CCP(=O)(CC)c1ccc(-n2ccn(-c3c(-c4cc(C)c(F)c(C)c4)nn4c3C(C)N(C(=O)c3cc5cc(N6CCOCC6)ccc5n3[C@@]3(c5noc(=O)[nH]5)C[C@@H]3C)CC4)c2=O)cc1NC (single isomer, unassigned) [Compound 114a] | 0.068 |
| CCP(=O)(CC)c1ccc(-n2ccn(-c3c(-c4cc(C)c(F)c(C)c4)nn4c3C(C)N(C(=O)c3cc5cc(N6CCOC(C)(C)C6)ccc5n3[C@@]3(c5noc(=O)[nH]5)C[C@@H]3C)CC4)c2=O)cc1NC (single isomer, unassigned) [Compound 115a] | 0.15 |
| CCP(=O)(CC)c1ccc(-n2ccn(-c3c(-c4cc(C)c(F)c(C)c4)nn4c3C(C)N(C(=O)c3cc5cc(C6CCC(F)(F)CC6)ccc5n3[C@@]3(c5noc(=O)[nH]5)C[C@@H]3C)CC4)c2=O)cc1NC (single isomer, unassigned) [Compound 116a] | 0.42 |
| Cc1cc(-c2nn3c(c2-n2ccn(-c4ccc5c(cnn5C)c4F)c2=O)C(C)N(C(=O)c2cc4cc([C@H]5CCOC(C)(C)C5)ccc4n2[C@@]2(c4noc(=O)[nH]4)C[C@@H]2C)CC3)cc(C)c1F (single isomer, unassigned) [Compound 117a] | 0.07 |
| Cc1cc(-c2nn3c(c2-n2ccn(-c4ccc5c(cnn5C)c4)c2=O)CN(C(=O)c2cc4cc(C5CCOCC5)ccc4n2C2(c4noc(=O)[nH]4)CC2)CC3)cc(C)c1F [Compound 101, 3-(1-(2-(2-(4-fluoro-3,5-dimethylphenyl)-3-(3-(1-methyl-1H-indazol-5-yl)-2-oxo-2,3-dihydro-1H-imidazol-1-yl)-4,5,6,7-tetrahydropyrazolo[1,5-a]pyrazine-5-carbonyl)-5-(tetrahydro-2H-pyran-4-yl)-1H-indol-1-yl)cyclopropyl)-1,2,4-oxadiazol-5(4H)-one] | 3.41 |
| Cc1cc(-c2nn3c(c2-n2ccn(-c4ccc5c(cnn5C)c4)c2=O)CN(C(=O)c2cc4cc(C5CCOCC5)ccc4n2C2(c4noc(=O)[nH]4)CCC2)CC3)cc(C)c1F [Compound 102, 3-(1-(2-(2-(4-fluoro-3,5-dimethylphenyl)-3-(3-(1-methyl-1H-indazol-5-yl)-2-oxo-2,3-dihydro-1H-imidazol-1-yl)-4,5,6,7-tetrahydropyrazolo[1,5-a]pyrazine-5-carbonyl)-5-(tetrahydro-2H-pyran-4-yl)-1H-indol-1-yl)cyclobutyl)-1,2,4-oxadiazol-5(4H)-one] | 3300 |
| Cc1cc(-c2nn3c(c2-n2ccn(-c4ccc5c(cnn5C)c4)c2=O)C(C)N(C(=O)c2cc4cc(C5CCOCC5)ccc4n2C2(c4noc(=O)[nH]4)CC2)CC3)cc(C)c1F (stereo not shown) [Compound 103, 3-(1-(2-(2-(4-fluoro-3,5-dimethylphenyl)-4-methyl-3-(3-(1-methyl-1H-indazol-5-yl)-2-oxo-2,3-dihydro-1H-imidazol-1-yl)-4,5,6,7-tetrahydropyrazolo[1,5-a]pyrazine-5-carbonyl)-5-(tetrahydro-2H-pyran-4-yl)-1H-indol-1-yl)cyclopropyl)-1,2,4-oxadiazol-5(4H)-one] | 0.29 |
| CCP(=O)(CC)c1ccc(-n2ccn(-c3c(-c4cc(C)c(F)c(C)c4)nn4c3C(C)N(C(=O)c3cc5cc(C6CCOCC6)ccc5n3C3(c5noc(=O)[nH]5)CC3)CC4)c2=O)cc1NC (stereo not shown) [Compound 104, 3-(1-(2-(3-(3-(4-(diethylphosphoryl)-3-(methylamino)phenyl)-2-oxo-2,3-dihydro-1H-imidazol-1-yl)-2-(4-fluoro-3,5-dimethylphenyl)-4-methyl-4,5,6,7-tetrahydropyrazolo[1,5-a]pyrazine-5-carbonyl)-5-(tetrahydro-2H-pyran-4-yl)-1H-indol-1-yl)cyclopropyl)-1,2,4-oxadiazol-5(4H)-one] | 0.18 |
| Cc1cc(-c2nn3c(c2-n2ccn(-c4ccc5c(cnn5C)c4)c2=O)CN(C(=O)c2cc4cc(C5CCOCC5)ccc4n2[C@@]2(c4noc(=O)[nH]4)C[C@@H]2C)CC3)cc(C)c1F [Compound 105a, 3-((1S,2S)-1-(2-(2-(4-fluoro-3,5-dimethylphenyl)-3-(3-(1-methyl-1H-indazol-5-yl)-2-oxo-2,3-dihydro-1H-imidazol-1-yl)-4,5,6,7-tetrahydropyrazolo[1,5-a]pyrazine-5-carbonyl)-5-(tetrahydro-2H-pyran-4-yl)-1H-indol-1-yl)-2-methylcyclopropyl)-1,2,4-oxadiazol-5(4H)-one] | 1.86 |
| Cc1cc(-c2nn3c(c2-n2ccn(-c4ccc5c(cnn5C)c4)c2=O)CN(C(=O)c2cc4cc(C5CCOCC5)ccc4n2[C@@]2(C(=O)O)C[C@@H]2C)CC3)cc(C)c1F [Compound 106a, (1S,2S)-1-(2-(2-(4-fluoro-3,5-dimethylphenyl)-3-(3-(1-methyl-1H-indazol-5-yl)-2-oxo-2,3-dihydro-1H-imidazol-1-yl)-4,5,6,7-tetrahydropyrazolo[1,5-a]pyrazine-5-carbonyl)-5-(tetrahydro-2H-pyran-4-yl)-1H-indol-1-yl)-2-methylcyclopropanecarboxylic acid] | 113 |
| Cc1cc(-c2nn3c(c2-n2ccn(-c4ccc5c(cnn5C)c4F)c2=O)C(C)N(C(=O)c2cc4cc(C5CCOCC5)ccc4n2[C@@]2(c4noc(=O)[nH]4)C[C@@H]2C)CC3)cc(C)c1F (stereo partly drawn) [Compound 109a, 3-((1S,2S)-1-(2-(3-(3-(4-fluoro-1-methyl-1H-indazol-5-yl)-2-oxo-2,3-dihydro-1H-imidazol-1-yl)-2-(4-fluoro-3,5-dimethylphenyl)-4-methyl-4,5,6,7-tetrahydropyrazolo[1,5-a]pyrazine-5-carbonyl)-5-(tetrahydro-2H-pyran-4-yl)-1H-indol-1-yl)-2-methylcyclopropyl)-1,2,4-oxadiazol-5(4H)-one] | 0.18 |

Same assay, conditions: HEK293/CRE-Luc cell line (HDB), 30 min incubation, read-out: GLP1R cAMP Stimulation DR: pEC50 (M) [Species: Human, Assay Cell Line: HDB] (converted)

| Structure (SMILES) | EC50 [nM] |
| --- | --- |
| CNc1cc(-n2ccn(-c3c(-c4cc(C)c(F)c(C)c4)nn4c3C(C)N(C(=O)c3cc5cc(C6CCOCC6)ccc5n3[C@@]3(c5noc(=O)[nH]5)C[C@@H]3C)CC4)c2=O)ccc1P(C)(C)=O (single isomer, unassigned) [Compound 118a] | 0.0316 |
| Cc1cc(-c2nn3c(c2-n2ccn(-c4ccc5c(cnn5C)c4)c2=O)CN(C(=O)c2cc4cc(C5CCOCC5)ccc4n2C2(c4noc(=O)[nH]4)CC2)CC3)cc(C)c1F [Compound 101, 3-(1-(2-(2-(4-fluoro-3,5-dimethylphenyl)-3-(3-(1-methyl-1H-indazol-5-yl)-2-oxo-2,3-dihydro-1H-imidazol-1-yl)-4,5,6,7-tetrahydropyrazolo[1,5-a]pyrazine-5-carbonyl)-5-(tetrahydro-2H-pyran-4-yl)-1H-indol-1-yl)cyclopropyl)-1,2,4-oxadiazol-5(4H)-one] | 3.31 |
| Cc1cc(-c2nn3c(c2-n2ccn(-c4ccc5c(cnn5C)c4)c2=O)CN(C(=O)c2cc4cc(C5CCOCC5)ccc4n2C2(c4noc(=O)[nH]4)CCC2)CC3)cc(C)c1F [Compound 102, 3-(1-(2-(2-(4-fluoro-3,5-dimethylphenyl)-3-(3-(1-methyl-1H-indazol-5-yl)-2-oxo-2,3-dihydro-1H-imidazol-1-yl)-4,5,6,7-tetrahydropyrazolo[1,5-a]pyrazine-5-carbonyl)-5-(tetrahydro-2H-pyran-4-yl)-1H-indol-1-yl)cyclobutyl)-1,2,4-oxadiazol-5(4H)-one] | 2190 |
